{"source": "patent US20050058722A1", "about": "“Herbo-mineral formulation for refractory leukemias and lymphomas” (Sahajanand Biotech Private Limited, priority 2003, published 2005)", "origin": "cited, not measured here", "key": {"lymphoid neoplasms": {"tested_on": "lymphoid neoplasms", "conditions": "pre-clinical studies"}, "[1]": {"tested_on": "myeloid leukemia cell lines", "conditions": "pre-clinical studies"}}, "data": [{"substance": "Arsenic trioxide", "values": [{"measurement": "Apoptosis and cell cycle", "setting": "lymphoid neoplasms", "result": "induction of apoptosis and cell cycle arrest"}, {"measurement": "Apoptosis and differentiation", "setting": "[1]", "result": "dose-dependent induction of apoptosis and partial differentiation"}]}]}
